From ChEMBL document CHEMBL3596089, “Synthesis and characterization of novel oxazines and demonstration that they specifically target cyclooxygenase 2” (Bioorg Med Chem Lett, 2015) come the findings set out here.

A word on the IC50: it is the concentration that gives 50% inhibition. Low readings indicate inhibition by little substance, high ones a need for much substance.

Assay [1] deals with T1, Prostaglandin G/H synthase 2 (Homo sapiens, UniProt P35354).
T1 sequence (P35354 whole entry): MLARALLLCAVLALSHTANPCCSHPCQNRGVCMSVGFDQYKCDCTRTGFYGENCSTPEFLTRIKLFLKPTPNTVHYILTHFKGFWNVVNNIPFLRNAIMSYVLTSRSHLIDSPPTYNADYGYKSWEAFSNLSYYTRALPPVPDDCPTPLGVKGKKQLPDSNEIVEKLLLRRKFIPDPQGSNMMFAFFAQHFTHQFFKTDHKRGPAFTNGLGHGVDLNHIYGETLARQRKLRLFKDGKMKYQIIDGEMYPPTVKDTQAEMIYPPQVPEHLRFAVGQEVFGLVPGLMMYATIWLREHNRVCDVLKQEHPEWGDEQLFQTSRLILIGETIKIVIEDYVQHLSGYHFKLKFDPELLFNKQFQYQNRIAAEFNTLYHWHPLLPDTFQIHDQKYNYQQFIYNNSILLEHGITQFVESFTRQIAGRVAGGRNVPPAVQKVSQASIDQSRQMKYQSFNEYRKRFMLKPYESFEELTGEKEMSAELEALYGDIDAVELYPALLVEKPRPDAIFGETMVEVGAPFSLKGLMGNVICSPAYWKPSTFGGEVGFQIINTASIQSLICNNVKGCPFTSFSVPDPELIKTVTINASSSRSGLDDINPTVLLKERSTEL
Nature of the assay: Inhibition of COX2 (unknown origin).

Assay [2] concerns the target Prostaglandin G/H synthase 1 (Homo sapiens, UniProt P23219). Nature of the assay: Inhibition of COX1 (unknown origin).

Prostaglandin G/H synthase 1, sequence (P23219 whole entry): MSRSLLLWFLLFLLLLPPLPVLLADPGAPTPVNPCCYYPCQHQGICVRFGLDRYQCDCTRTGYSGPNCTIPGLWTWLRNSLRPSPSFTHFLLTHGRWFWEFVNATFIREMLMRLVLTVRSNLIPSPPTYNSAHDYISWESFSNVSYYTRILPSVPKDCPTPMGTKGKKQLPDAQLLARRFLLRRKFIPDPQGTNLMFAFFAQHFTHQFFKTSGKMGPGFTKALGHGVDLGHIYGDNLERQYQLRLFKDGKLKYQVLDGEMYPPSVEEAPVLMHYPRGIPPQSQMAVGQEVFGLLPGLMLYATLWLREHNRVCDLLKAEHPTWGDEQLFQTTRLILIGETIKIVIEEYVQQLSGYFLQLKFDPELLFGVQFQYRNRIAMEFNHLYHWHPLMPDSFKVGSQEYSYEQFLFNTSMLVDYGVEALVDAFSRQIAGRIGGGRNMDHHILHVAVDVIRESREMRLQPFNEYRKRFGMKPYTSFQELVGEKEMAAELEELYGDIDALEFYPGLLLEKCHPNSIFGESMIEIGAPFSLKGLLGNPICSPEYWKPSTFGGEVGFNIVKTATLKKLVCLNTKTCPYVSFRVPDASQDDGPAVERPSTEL

As to `COc1ccc([C@H]2C(CN3CCN(c4ccc(OC)cc4)CC3)=NO[C@@H]3CCCC[C@H]23)cc1`, the values for the IC50 in assay [1] and in assay [2] were 1.7 µM and 40.4 µM, respectively.

As for `COc1ccc(N2CCN(CC3=NOC(C)(C)CC3c3ccccc3)CC2)cc1` (stereo not given), the IC50 worked out at 2.6 µM in assay [1] and 50.6 µM in assay [2].

On to `COc1ccc(N2CCN(CC3=NO[C@@H]4CCCC[C@@H]4[C@H]3c3ccccc3)CC2)cc1`, for which the IC50 in assay [1] is 1.8 µM; in assay [2], 35.8 µM.

For `CC1(C)CC(c2ccccc2)C(CN2CCC(c3noc4cc(F)ccc34)CC2)=NO1` (stereo not given), the IC50 amounted to 10.5 µM in assay [1] and 39.8 µM in assay [2].

In the case of `Fc1ccc2c(C3CCN(CC4=NO[C@@H]5CCCC[C@@H]5[C@H]4c4ccccc4)CC3)noc2c1`, the IC50 stood at 4.7 µM in assay [1] and 42.8 µM in assay [2].

For `CC1(C)CC(c2ccc(Cl)cc2)C(CN2CCC(c3noc4cc(F)ccc34)CC2)=NO1` (stereo not given), the concentration for half-maximal inhibition (IC50) was found to be 4.1 µM in assay [1] and 40.1 µM in assay [2].

In the case of `CC1(C)CC(c2ccccc2)C(CN2CCN(c3cccc(Cl)c3Cl)CC2)=NO1` (stereo not given), the IC50 in assay [1] was 6.8 µM; in assay [2], 54.9 µM.

Regarding `c1ccc([C@H]2C(Cn3c4ccccc4c4ccccc43)=NO[C@@H]3CCCC[C@H]23)cc1`, the IC50 in assay [1] stood at 9.9 µM; in assay [2], 59.9 µM.

`COc1ccc([C@H]2C(Cn3c4ccccc4c4ccccc43)=NO[C@@H]3CCCC[C@H]23)cc1`: the values for the IC50 in assay [1] and in assay [2] were 5.9 µM and 50.8 µM, respectively.

`CC1(C)CC(c2ccc(Cl)cc2)C(Cn2c3ccccc3c3ccccc32)=NO1` (stereo not given): the IC50 was 3.9 µM in assay [1] and 40.8 µM in assay [2].
